Read-outs that look alike come from different tables or passages of the source.
How the values were obtained:
[1] = test system: lung cancer; test: Phase I clinical study of intermittent TNP-470 combined with paclitaxel (Example 1), lung cancer patients; format: in vivo, human
From the text: (§1) TNP-470 administrations were repeated up to three times per week.
(§2) In the table, "response" refers to the percentage of patients whose tumor shrank by more than fifty percent; and "time to progression" refers to the median value of the length of time between the first dose of drug and observation that the tumor has grown by more than fifty percent, or that new tumors have appeared. Patients who stop taking the drug for other reasons are considered lost to follow-up for "time to progression" calculations. "Survival" in the table is a median value.

[2] = test system: advanced or metastatic cancer; test: Phase I clinical study of intermittent TNP-470 combined with paclitaxel (Example 1), all patients; format: in vivo, human; conditions: TNP-470 20-60 mg/m^2 + 135-225 mg/m^2 paclitaxel; 32 patients (different cancers)
From the text: as §1, §2

[3] = test system: non-small cell lung cancer; test: Phase I clinical study of intermittent TNP-470 with paclitaxel and carboplatin at a dose of AUC 5 (Example 2); format: in vivo, human
[4] = test system: advanced or metastatic cancer; test: Phase I clinical study of intermittent TNP-470 with paclitaxel and carboplatin at a dose of AUC 6 (Example 2)
Protocol: Doses of TNP-470 and paclitaxel were modified as described below.
Twenty adult patients with advanced or metastatic cancer, were treated with TNP-470 (synthesized according to the procedure of U.S. Patent No. 5,180,738) in a liquid cyclodextrin-containing formulation using repeated administrations of a high dose (60 mg/m^2) given over one hour, combined with 225 mg/m^2 paclitaxel given over three hours. Carboplatin was given at doses calculated to provide an "area-under-the-curve (AUC)" exposure of 5 or 6 mg/mL/min (hereinafter referred to as "a dose of AUC 5" or "a dose of AUC 6"), according to the formula Dose (mg) = AUC x (glomerular filtration rate + 25) [formula] as described in the package insert for carboplatin. Glomerular filtration rate was estimated by creatinine clearance, either measured or calculated from the patient's age, weight, gender and serum creatinine according to the Cockcroft-Gault equation Cr CL = ((140-age) x weight (kg)/72 x serum creatinine) x 1.0 if male or 0.85 if female [formula]
In this study, paclitaxel was administered first, followed one hour later by TNP-470, then finally by the carboplatin. TNP-470 administrations were repeated up to three thimes per week. Paclitaxel and carboplatin administrations were repeated every three weeks as the patients' condition permitted. Anti-emetic therapy and prophylaxis against paclitaxel hypersensitivity were administered in accordance with the paclitaxel package insert on days when paclitaxel and carboplatin were administered.
The patients' tumors were measured at the start of the study, after six to eight weeks of therapy, and at two-month intervals thereafter. Patients continued to receive TNP-470 until tumors grew by 50% or they experienced adverse events.
Three patients, all with non-small cell lung cancer, received TNP-470 in combination with paclitaxel and carboplatin (a dose of AUC 5).

[5] = test system: metastatic cancer; test: Phase I clinical study of continuously infused TNP-470 with paclitaxel and carboplatin (Example 3); format: in vivo, human; conditions: TNP-470 2.5-10 mg/m^2 continuous infusion with or without 60 on Day 1 + 200-225 mg/m^2 paclitaxel; carboplatin AUC 5-6; 20 patients (different cancers)
Protocol: Twenty adult patients with metastatic cancer, including patients with lung cancer, were treated with TNP-470, using repeated continuous administrations of low doses (2.5-10 mg/m^2 over five days in combination with paclitaxel at doses of 200-225 mg/m^2 and carboplatin at a dose of AUC 5 or AUC 6 (as explained in Example 2 above) reported in row 7 of Table 1 above.
In this study, paclitaxel was administered first, followed by the carboplatin, then by TNP-470 administered intravenously via portable continuous infusion syringe pump (available from Sims-Deltec) at a dose of 2.5 -10 mg/m^2 for five days (115-120 hours). The five-day TNP-470 infusion was repeated every week.
In an ongoing cohort of this study, in addition to the described therapy, nine patients received 60 mg/m^2 TNP-470 as a one-hour intravenous infusion after infusion of paclitaxel and prior to infusion of carboplatin. This high-dose one-hour TNP-470 infusion was administered only when paclitaxel and carboplatin were administered.

[6] = test system: lung cancer; conditions: no TNP-470, lung cancer historical data, cited from earlier work
[7] = TNP-470 20-60 mg/m^2 + 135-225 mg/m^2 paclitaxel, 15 patients (lung cancer only), median
[8] = TNP-470 60 mg/m^2 + 225 mg/m^2 paclitaxel, carboplatin AUC 6, 14 patients (different cancers)

Compound | Survival (months) [1, 7] [months] | Time to Progression (months) [1, 7] [months] | Responses (percentage) ([1]; TNP-470 20-60 mg/m^2 i.v. up to three times per week + 135-225 mg/m^2 paclitaxel every three weeks, 15 patients (lung cancer only)) | increase in survival over that previously reported for patients treated with paclitaxel alone ([1]; TNP-470 + paclitaxel, patients with lung cancer, 14.3 months vs. 8 months) | Responses (percentage) [2] [percentage] | Responses (percentage) ([3]; TNP-470 60 mg/m^2 + 225 mg/m^2 paclitaxel, carboplatin AUC 5, 3 patients (lung cancer only)) | Survival (months) ([3]; TNP-470 60 mg/m^2 + 225 mg/m^2 paclitaxel, carboplatin AUC 5, 3 patients (lung cancer only), individual values) | tumor response in words ([3]; TNP-470 in combination with paclitaxel and carboplatin (a dose of AUC 5), three patients, all with non-small cell lung cancer) | tumor shrinkage ([3]; TNP-470 with paclitaxel and carboplatin, patients with non-small-cell lung cancer) | tolerability of the combined therapy ([4]; TNP-470 60 mg/m^2 + 225 mg/m^2 paclitaxel + carboplatin at a dose of AUC 6, variety of different cancers, prior chemotherapy) | Survival (months) [4, 8] | Time to Progression (months) [4, 8] | Responses (percentage) ([4]; TNP-470 60 mg/m^2 + 225 mg/m^2 paclitaxel, carboplatin AUC 6, 14 patients (different cancers), prior chemotherapy, insufficient therapy to evaluate effectiveness) | Responses (percentage) [5] [percentage] | Survival (months) ([6]; median) | Time to Progression (months) ([6]; median) | Responses (percentage) ([6]; patients whose tumor shrank by more than fifty percent)
CO[C@@H]1[C@H](OC(=O)NC(=O)CCl)CC[C@]2(CO2)[C@H]1[C@@]1(C)O[C@@H]1CC=C(C)C [TNP-470, 6-O-(N-chloroacetylcarbamoyl) fumagillol] | 14.3 | 5.4 | 33 | greater than 70% | 28 | 100 | often, sixteen and more than twenty-two | All three had partial responses | experienced tumor shrinkage | tolerated the combined therapy poorly beyond two cycles of therapy | regimen not tolerated | regimen not tolerated | 0 | 20 | – | – | –
CC(=O)O[C@H]1C(=O)[C@@]2(C)[C@H]([C@H](OC(=O)c3ccccc3)[C@]3(O)C[C@H](OC(=O)[C@H](O)[C@@H](NC(=O)c4ccccc4)c4ccccc4)C(C)=C1C3(C)C)[C@]1(OC(C)=O)CO[C@@H]1C[C@@H]2O [paclitaxel] | – | – | – | – | – | – | – | – | – | – | – | – | – | – | 6-9 months | ∼3 months | 20-30 percentage
